Molecules are shown by their SMILES.

The assay concerns the target T1, human B1R (Homo sapiens, UniProt P46663).
T1 construct: expressed in transfected cells; host or cells: CHO K1 cells (Chinese Hamster Ovary), stably transfected
T1 sequence (P46663 1-353): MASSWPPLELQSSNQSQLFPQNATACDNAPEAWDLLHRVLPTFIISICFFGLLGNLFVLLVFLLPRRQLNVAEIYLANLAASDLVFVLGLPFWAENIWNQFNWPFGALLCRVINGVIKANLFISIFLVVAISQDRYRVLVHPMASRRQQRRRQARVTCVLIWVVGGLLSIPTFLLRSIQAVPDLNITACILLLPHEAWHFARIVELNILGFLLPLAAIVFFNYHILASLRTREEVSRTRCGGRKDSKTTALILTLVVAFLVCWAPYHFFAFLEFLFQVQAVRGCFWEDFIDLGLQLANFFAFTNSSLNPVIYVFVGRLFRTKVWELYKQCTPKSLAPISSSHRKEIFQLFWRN
The assay can be described thus: Functional assay at bradykinin receptor 1 (B1R): Ca2+ fluorescence (Fluo-4) in FLIPR/Novostar, antagonist mode. The class given is cell-based. To be noted: test substance 10 µM; CHO K1 cells stably transfected with human B1R gene (hB1R-Zellen); agonist Lys-Des-Arg9-Bradykinin at EC80; % inhibition relative to maximal achievable inhibition; read-out: % Inhibierung (human B1R) bei 10 µM. Put shortly: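 Antagonism read as suppression of the Ca2+ rise in Fluo-4-loaded, hB1R-transfected CHO K1 cells when Lys-Des-Arg9-bradykinin (EC80) follows a 6–20 min compound preincubation. Maximal fluorescence counts, measured on FLIPR or Novostar, yield % inhibition relative to maximum; IC50 values come from concentration series run in duplicate or triplicate.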

On to `COc1cc(C)c(S(=O)(=O)Cc2noc(CC(=O)N3CCC4(CC3)CCN(c3ccncc3)C4)n2)c(C)c1` [CC-134, 2-[3-[[(4-Methoxy-2,6-dimethyl-phenyl)sulfonyl]-methyl]-[1,2,4]oxadiazol-5-yl]-1-(3-pyridin-4-yl-3,8-diazaspiro[4.5]decan-8-yl)-ethanon], for which the inhibition at 10 µM came out at 100%. The result for `COc1cc(C)c(S(=O)(=O)Cc2noc(CC(=O)N3[C@@H]4CC[C@H]3CC(Oc3ccncc3)C4)n2)c(C)c1` (stereo partly drawn) [CC-135, 2-[3-[[(4-Methoxy-2,6-dimethyl-phenyl)sulfonyl]-methyl]-[1,2,4]oxadiazol-5-yl]-1-[(1S, 5R)-3-pyridin-4-yloxy-8-azabicyclo[3.2.1]octan-8-yl]-ethanon] reads 98%; that for `COc1cc(C)c(S(=O)(=O)Cc2noc(C(=O)N3CCN(c4ccncc4)CC3)n2)c(C)c1` [CC-136, [3-[[(4-Methoxy-2,6-dimethyl-phenyl)sulfonyl]-methyl]-[1,2,4]oxadiazol-5-yl]-(4-pyridin-4-yl-piperazin-1-yl)-methanon], 100%; that for `Cc1cccc(Cl)c1S(=O)(=O)Cc1noc(C(=O)N2CCN(c3ccncc3)CC2)n1` [CC-137, [3-[[(2-Chlor-6-methyl-phenyl)sulfonyl]-methyl]-[1,2,4]oxadiazol-5-yl]-(4-pyridin-4-yl-piperazin-1-yl)-methanon], 99%. The result for `Cc1cccc(Cl)c1S(=O)(=O)Cc1noc(C(=O)N2CCC(N3CCN(C)CC3)CC2)n1` [CC-138, [3-[[(2-Chlor-6-methyl-phenyl)sulfonyl]-methyl]-[1,2,4]oxadiazol-5-yl]-[4-(4-methyl-piperazin-1-yl)-piperidin-1-yl]-methanon] reads 95%; that for `COc1cc(C)c(S(=O)(=O)Cc2noc(C(=O)N3CCC4(CC3)CCN(c3ccncc3)C4)n2)c(C)c1` [CC-139, [3-[[(4-Methoxy-2,6-dimethyl-phenyl)sulfonyl]-methyl]-[1,2,4]oxadiazol-5-yl]-(3-pyridin-4-yl-3,8-diazaspiro[4.5]decan-8-yl)-methanon], 100%.

Regarding `Cc1cc(S(=O)(=O)Cc2noc(C(=O)N3CCC(N4CCN(C)CC4)CC3)n2)c(C)cc1Cl` [CC-141, [3-[[(4-Chlor-2,5-dimethyl-phenyl)sulfonyl]-methyl]-[1,2,4]oxadiazol-5-yl]-[4-(4-methyl-piperazin-1-yl)-piperidin-1-yl]-methanon], the inhibition at 10 µM was 99%. The result for `Cc1cc(S(=O)(=O)Cc2noc(C(=O)N3CCC4(CCN(C)C4)C3)n2)c(C)cc1Cl` (stereo not drawn) [CC-142, [3-[[(4-Chlor-2,5-dimethyl-phenyl)sulfonyl]-methyl]-[1,2,4]oxadiazol-5-yl]-(2-methyl-2,8-diaza-spiro[4.4]nonan-8-yl)-methanon] reads 99%; that for `Cc1cccc(Cl)c1S(=O)(=O)Cc1noc(C(=O)N2CCC3(CCN(C)C3)C2)n1` (stereo not drawn) [CC-143, [3-[[(2-Chlor-6-methyl-phenyl)sulfonyl]-methyl]-[1,2,4]oxadiazol-5-yl]-(2-methyl-2,8-diazaspiro-[4.4]nonan-8-yl)-methanon], 82%; that for `Cc1cc(S(=O)(=O)Cc2noc(C(=O)N3CCN(c4ccncc4)CC3)n2)c(C)cc1Cl` [CC-144, [3-[[(4-Chlor-2,5-dimethyl-phenyl)sulfonyl]-methyl]-[1,2,4]oxadiazol-5-yl]-(4-pyridin-4-yl-piperazin-1-yl)-methanon], 100%. On to `Cc1cccc(Cl)c1S(=O)(=O)Cc1noc(C(=O)N2CCC3(CC2)CCN(c2ccncc2)C3)n1` [CC-145, [3-[[(2-Chlor-6-methyl-phenyl)sulfonyl]-methyl]-[1,2,4]oxadiazol-5-yl]-(3-pyridin-4-yl-3,8-diazaspiro[4.5]decan-8-yl)-methanon], for which the inhibition at 10 µM amounted to 100%. The result for `Cc1cc(S(=O)(=O)Cc2noc(C(=O)N3CCC4(CC3)CCN(c3ccncc3)CC4)n2)c(C)cc1Cl` [CC-146, [3-[[(4-Chlor-2,5-dimethyl-phenyl)sulfonyl]-methyl]-[1,2,4]oxadiazol-5-yl]-(9-pyridin-4-yl-3,9-diazaspiro[5.5]undecan-3-yl)-methanon] reads 100%. In the case of `COc1cc(C)c(S(=O)(=O)Cc2noc(C(=O)N3CCC4(CCN(C)C4)C3)n2)c(C)c1` (stereo not drawn) [CC-147, [3-[[(4-Methoxy-2,6-dimethyl-phenyl)sulfonyl]-methyl]-[1,2,4]oxadiazol-5-yl]-(2-methyl-2,8-diazaspiro[4.4]nonan-8-yl)-methanon], the inhibition at 10 µM came to 100%. For `Cc1cccc(Cl)c1S(=O)(=O)Cc1noc(C(=O)N2CCC3(CC2)CCN(c2ccncc2)CC3)n1` [CC-148, [3-[[(2-Chlor-6-methyl-phenyl)sulfonyl]-methyl]-[1,2,4]oxadiazol-5-yl]-(9-pyridin-4-yl-3,9-diazaspiro[5.5]undecan-3-yl)-methanon] the value was 100%; for `COc1cc(C)c(S(=O)(=O)Cc2noc(C(=O)N3[C@@H]4CC[C@H]3CC(Oc3ccncc3)C4)n2)c(C)c1` (stereo partly drawn) [CC-149, [3-[[(4-Methoxy-2,6-dimethyl-phenyl)sulfonyl]-methyl]-[1,2,4]oxadiazol-5-yl]-[(1S,5R)-3-pyridin-4-yloxy-8-azabicyclo[3.2.1]octan-8-yl]-methanon], 100%. Turning to `Cc1cccc(Cl)c1S(=O)(=O)Cc1noc(C(=O)N2C3CCC2CC(Oc2ccncc2)C3)n1` [CC-150, [3-[[(2-Chlor-6-methyl-phenyl)sulfonyl]-methyl]-[1,2,4]oxadiazol-5-yl]-[(1S,5R)-3-pyridin-4-yloxy-8-azabicyclo[3.2.1]octan-8-yl]-methanon], the inhibition at 10 µM was 100%. `Cc1cc(S(=O)(=O)Cc2noc(C(=O)N3CCC4(CC3)CCN(c3ccncc3)C4)n2)c(C)cc1Cl` [CC-152, [3-[[(4-Chlor-2,5-dimethyl-phenyl)sulfonyl]-methyl]-[1,2,4]oxadiazol-5-yl]-(3-pyridin-4-yl-3,8-diazaspiro[4.5]decan-8-yl)-methanon]: the inhibition at 10 µM is 100%. As to `COc1cc(C)c(S(=O)(=O)Cc2noc(CC(=O)N3CCC(Cc4ccncc4)CC3(C)C)n2)c(C)c1` (stereo not drawn) [CC-153, 1-[2,2-Dimethyl-4-(pyridin-4-yl-methyl)-piperidin-1-yl]-2-[3-[[(4-methoxy-2,6-dimethyl-phenyl)-sulfonyl]-methyl]-[1,2,4]oxadiazol-5-yl]-ethanon], the inhibition at 10 µM came to 92%. For the molecule `COc1cc(C)c(S(=O)(=O)Cc2cc(C)n(CC(=O)NC3CCC(N(C)C)CC3)n2)c(C)c1` (stereo not drawn) [CC-154, N-(4-Dimethylamino-cyclohexyl)-2-[3-[[(4-methoxy-2,6-dimethyl-phenyl)sulfonyl]-methyl]-5-methyl-1 H-pyrazol-1-yl]-acetamid], the inhibition at 10 µM came out at 80%. As for `COc1cc(C)c(S(=O)(=O)Cc2cc(C)n(CC(=O)NC3CCC(N4CCCC4)CC3(C)C)n2)c(C)c1` (stereo not drawn) [CC-155, N-(2,2-Dimethyl-4-pyrrolidin-1-yl-cyclohexyl)-2-[3-[[(4-methoxy-2,6-dimethyl-phenyl)sulfonyl]-methyl]-5-methyl-1 H-pyrazol-1-yl]-acetamid], the inhibition at 10 µM came to 98%. For `COc1cc(C)c(S(=O)(=O)Cc2cc(C)n(CC(=O)NC3CCC(N4CCCC4)CC3)n2)c(C)c1` (stereo not drawn) [CC-156, 2-[3-[[(4-Methoxy-2,6-dimethyl-phenyl)sulfonyl]-methyl]-5-methyl-1H-pyrazol-1-yl]-N-(4-pyrrolidin-1-yl-cyclohexyl)-acetamid] the value was 98%.

Source of the values: patent EP2857388A1, “Azoles containing sulfone” (Grünenthal GmbH, priority 2013, dated 2015).
